This note sets out measurements from patent US20110021483A1, “Platinum (IV) Complexes” (PLATCO TECHNOLOGIES (PROPRIETARY) LIMITED, priority 2007, published 2011).

A short description of one data set: physchem. Particulars: water.
A further data set concerns Hela cancer cells. Description: Anticancer activity, IC50 from dose response curves, HeLa cells. The data set is classed as cell-based. Particulars: concentrations 100, 50, 25, 10, 5 and 1 μM.
Another data set concerns HT29 cancer cells. Description: Anticancer activity, IC50 from dose response curves, HT29 cells. Particulars: concentrations 100, 50, 25, 10, 5 and 1 μM. The data set is classed as cell-based.
In a further data set the test system is MCF7 cancer cells. In words: Anticancer activity, IC50 from dose response curves, MCF7 cells. The class given is cell-based. As to conditions: concentrations 100, 50, 25, 10, 5 and 1 μM.
The nature of data set [1]: Thermal stability of the solid complex. The data set is classed as physicochemical.
The nature of data set [2]: Stability: reduction by cysteine followed by positive ion mass spectra. The class given is physicochemical. As to conditions: water/37° C./18 h, presence of cysteine. The source says:
This observation implies that certain platinum(IV) complexes described herein are capable of converting to their corresponding platinum(II) complexes.

In the next data set the test system is HeLa cells. In words: Percent inhibition of HeLa cells at single concentration, 48 h. The class given is cell-based. The procedure: The anticancer activity of cis-diammineoxalatochloronitroplatinum(IV) (complex I-A) has been compared to cisplatin against two cell lines for 48 h at 77 uM.
A further data set relates to MCF7 cells. In words: Percent inhibition of MCF7 cells at single concentration, 48 h. The data set is classed as cell-based.

Description for HT29 cancer cells: (§1) All Dose response curves were prepared for each of the chosen complexes, as well as positive controls, in order to obtain IC50 values. The concentrations used were 100, 50, 25, 10, 5 and 1 μM. IC50 values were calculated from the log-dose response curves using GraphPad Prism 4.
Description for Hela cancer cells: as §1
Description for MCF7 cancer cells: as §1

The term solubility denotes the dissolved amount per volume that the medium holds. In turn, `[NH2][Pt]1([NH2])([Cl])([N+](=O)[O-])[O]C(=O)C(=O)[O]1` [I-A, cis-diammineoxalatochloronitroplatinum(IV)] registered a solubility in “physchem” of 2400 µg/mL.
The term IC50 denotes the concentration that gives 50% inhibition. The low end stands for inhibition by little substance, the high end for a need for much substance. Take `NC1CCCCC1N.O=C([O-])C(=O)[O-].O=N[O-].[Cl-].[Pt+4]` (stereo not drawn) [II-A, (trans-l-1,2-diaminocyclohexane)oxalatochloronitro-platinum(IV)]: the values for the IC50 with Hela cancer cells, in the data set on HT29 cancer cells and in the data set with MCF7 cancer cells were 4.81 µM, 3.07 µM and 5.86 µM, respectively. The “Solid complex stable up to (temperature)” value in data set [1] is “up to 210 °C”. The “Reduction to platinum(II) complex upon addition of cysteine” value in data set [2] is “oxaliplatin is formed”.
As to `O=C1[O][Pt-2]2([NH2+]C3CCCC[C@H]3[NH2+]2)[O]C1=O` (stereo in doubt) [Oxaliplatin, (trans-l-1,2-diaminocyclohexane)oxalatoplatinum(II)], the IC50 is 11.9 µM in the data set with Hela cancer cells, 12.3 µM in the data set with HT29 cancer cells and 6.21 µM in the data set on MCF7 cancer cells.
In the case of `N.N.[Cl][Pt][Cl]` [Cisplatin, cisplatin], the IC50 with Hela cancer cells turned out to be 10.7 µM; in the data set with HT29 cancer cells it was 8.11 µM; in the data set with MCF7 cancer cells, 14.1 µM. The “Percent inhibition of HeLa cells” value in the data set with HeLa cells (48 h at 50 uM) is 86%; in the data set with HeLa cells (48 h at 77 uM), 87%. In addition, the “Percent inhibition of MCF7 cells” value stood at 72% in the data set with MCF7 cells (48 h at 50 uM) and 76% with MCF7 cells (48 h at 77 uM).
